Measured values from US8778939B2, “Compounds” (Glaxo Group Limited, priority 2009, dated 2014).

Experiments:
[1] = target: T1, 6His-Tev-LRRK2 (1326-2527) (Homo sapiens, UniProt Q5S007); test: LRRK2 peptide substrate assay; assay type: biochemical; details: Biotin-LRRKtide peptide substrate, ATP at Km
T1 construct: A LRRK2 cDNA encoding residues 1326-2527 was received from Dundee University; made in house; host or cells: Spodoptera frugiperda (Sf9) insect cells, baculovirus
T1 sequence (Q5S007 1326-2527): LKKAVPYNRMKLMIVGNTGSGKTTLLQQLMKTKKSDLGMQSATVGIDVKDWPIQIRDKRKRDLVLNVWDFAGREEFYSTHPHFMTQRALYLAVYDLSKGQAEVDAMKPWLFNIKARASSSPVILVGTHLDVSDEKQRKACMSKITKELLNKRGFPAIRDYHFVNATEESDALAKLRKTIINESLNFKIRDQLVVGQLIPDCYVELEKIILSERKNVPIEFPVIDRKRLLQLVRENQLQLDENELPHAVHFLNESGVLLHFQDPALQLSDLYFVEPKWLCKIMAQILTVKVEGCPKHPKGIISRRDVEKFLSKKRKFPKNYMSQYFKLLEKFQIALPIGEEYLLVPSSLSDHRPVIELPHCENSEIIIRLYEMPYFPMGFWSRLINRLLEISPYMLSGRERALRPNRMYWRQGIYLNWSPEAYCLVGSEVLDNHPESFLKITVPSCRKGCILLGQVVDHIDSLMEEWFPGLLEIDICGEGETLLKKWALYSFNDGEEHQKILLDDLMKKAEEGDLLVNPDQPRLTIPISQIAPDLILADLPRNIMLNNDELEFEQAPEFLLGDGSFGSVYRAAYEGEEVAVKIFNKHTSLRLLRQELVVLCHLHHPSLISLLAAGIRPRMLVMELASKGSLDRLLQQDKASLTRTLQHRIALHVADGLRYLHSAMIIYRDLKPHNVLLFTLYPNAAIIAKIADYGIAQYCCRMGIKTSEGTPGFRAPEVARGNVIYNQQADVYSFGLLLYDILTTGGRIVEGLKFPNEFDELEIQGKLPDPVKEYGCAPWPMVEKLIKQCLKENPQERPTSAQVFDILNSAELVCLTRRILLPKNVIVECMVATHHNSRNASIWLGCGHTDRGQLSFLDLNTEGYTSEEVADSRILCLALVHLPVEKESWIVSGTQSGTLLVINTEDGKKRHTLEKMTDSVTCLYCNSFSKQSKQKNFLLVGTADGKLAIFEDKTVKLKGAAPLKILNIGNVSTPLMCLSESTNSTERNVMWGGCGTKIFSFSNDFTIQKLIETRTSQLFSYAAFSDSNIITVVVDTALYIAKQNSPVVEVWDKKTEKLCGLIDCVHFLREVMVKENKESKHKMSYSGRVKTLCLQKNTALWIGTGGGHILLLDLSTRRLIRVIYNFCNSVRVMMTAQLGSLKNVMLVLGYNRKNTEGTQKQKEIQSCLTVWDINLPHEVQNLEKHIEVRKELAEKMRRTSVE
Description: Compounds of formula (I) may be tested for in vitro kinase activity in accordance with the following assays, using the non natural, in vitro, substrates moesin and the Longer Biotin-LRRKtide. Moesin and a shorter version of the peptide were identified as substrates in Jaleel et al, (2007, Biochem J, 405: 307-317).
LRRK2 Peptide Substrate Assay
(§1) a) 100 nl of a 1:4 serial dilution of test compound with a top final assay concentration of 30 μM is added to certain wells in a low volume 384 well black plate. 100 nl of DMSO is used in certain wells as controls.
b) 3 μl enzyme solution (80 nM purified recombinant 6His-Tev-LRRK2 (1326-2527) in assay buffer: 50 mM Hepes (pH 7.2), 10 mM MgCl2, 150 mM NaCl, 5% glycerol, 0.0025% triton X-100 and 1 mM DTT) is added to certain wells. […] Plates are then incubated for a further 1-2 hours at room temperature (incubation time varies depending upon rate and linearity of reaction with differing enzyme batches). d) 6 μl detection solution (50 nM Streptavidin SureLight® APC (PerkinElmer), 4 nM Eu-W1024 labelled anti-rabbit IgG antibody (PerkinElmer), 1:500 dilution (dilution determined on a batch to batch basis) of Phospho-Ezrin (Thr567)/Radixin (Thr564)/Moesin (Thr558) Polyclonal Antibody (New England Biolabs) and 60 mM EDTA in buffer: 40 mM Hepes (pH 7.2), 150 mM NaCl, 0.03% BSA) is added to each well. Plates are then incubated for a further 2 hours at room temperature before reading on a suitable plate reader (Excitation 330 nm, emission 620 nm (Eu) and 665 nm (APC)). Data is analysed using ActivityBase software (IDBS). LRRK2 AlphaScreen Protein Substrate Assay

[2] = target: T1, 6His-Tev-LRRK2 (1326-2527); test: LRRK2 AlphaScreen desensitised protein substrate assay; assay type: biochemical
Description: as §1
b) 3 μl enzyme solution (80 nM purified recombinant 6His-Tev-LRRK2 (1326-2527) in assay buffer: 50 mM Hepes (pH 7.2), 10 mM MgCl2, 150 mM NaCl, 5% glycerol, 0.0025% triton X-100 and 1 mM DTT) is added to certain wells.
Plates are then incubated for a further 1-2 hours at room temperature (incubation time varies depending upon rate and linearity of reaction with differing enzyme batches).
d) 6 μl detection solution (1:250 dilution of AlphaLisa Protein A Acceptor beads (PerkinElmer), 1:64 dilution of AlphaLisa Gluthathione Donor beads (PerkinElmer) and 1:600 dilution (dilution determined on a batch to batch basis) of Phospho-Ezrin (Thr567)/Radixin (Thr564)/Moesin (Thr558) Polyclonal Antibody (New England Biolabs) in a buffer: 50 mM Hepes (pH 7.5), 250 mM NaCl, 60 mM EDTA, 1% PEG and 0.01% Brij 35) is added to each well. Plates are then incubated for a further 2 hours at room temperature in the dark before reading on an EnVision™ plate reader with AlphaScreen HTS turbo option module and AlphaScreen settings. Data is analysed using ActivityBase software (IDBS).
LRRK2 AlphaScreen Desensitised Protein Substrate Assay
This is conducted as described for the LRRK2 alphascreen protein substrate assay, with the following differences: • 1. The concentration of ATP in the substrate solution was 2 mM. • 2. The plates were incubated for 20 minutes at room temperature following addition of the substrate solution. Pharmacological Data

[3] = read-out: pIC50 in the LRRK2 peptide substrate assay (converted)
[4] = mean pIC50, read-out: LRRK2 peptide substrate assay (pIC50) (converted)
[5] = excess of ATP present (2 mM ATP), read-out: pIC50 in the LRRK2 alphascreen desensitised protein substrate assay (converted)
[6] = mean pIC50, GST-PS-Moesin (400-577) substrate, 2 mM ATP (excess of ATP present), read-out: LRRK2 alphascreen desensitised protein substrate assay (pIC50) (converted)

Row | Structure (SMILES) | IC50 [1, 3] [nM] | IC50 [1, 4] [nM] | IC50 [2, 5] [nM] | IC50 [2, 6] [nM]
1 | O=C(Nc1cccnc1)c1cc(C(=O)N2CCOCC2)ccc1OCc1ccccc1 [Example 38, 5-(4-Morpholinylcarbonyl)-2-[(phenylmethyl)oxy]-N-3-pyridinylbenzamide] | ≤ 100 | 79.4 | ≤ 20000 | 7940
2 | O=C(Nc1cccnc1)c1cc(OC[C@H]2CCCN2)ccc1OCc1ccccc1 [Example 44, 2-[(Phenylmethyl)oxy]-N-3-pyridinyl-5-{[(2R)-2-pyrrolidinylmethyl]oxy}benzamide] | ≤ 10 | – | ≤ 20000 | –
3 | CN1CCC[C@@H]1COc1ccc(OCc2ccccc2)c(C(=O)Nc2cccnc2)c1 [Example 45, 5-({[(2R)-1-Methyl-2-pyrrolidinyl]methyl}oxy)-2-[(phenylmethyl)oxy]-N-3-pyridinylbenzamide] | ≤ 10 | – | ≤ 20000 | –
4 | O=C(Nc1cccnc1)c1cc(OC[C@@H]2CCCN2)ccc1OCc1ccccc1 [Example 46, 2-[(Phenylmethyl)oxy]-N-3-pyridinyl-5-{[(2S)-2-pyrrolidinylmethyl]oxy}benzamide] | ≤ 100 | – | ≤ 20000 | –
5 | CN1CCC[C@H]1COc1ccc(OCc2ccccc2)c(C(=O)Nc2cccnc2)c1 [Example 47, 5-({[(2S)-1-Methyl-2-pyrrolidinyl]methyl}oxy)-2-[(phenylmethyl)oxy]-N-3-pyridinylbenzamide] | ≤ 10 | – | ≤ 20000 | –
6 | CNCCOc1ccc(OCc2ccccc2)c(C(=O)Nc2cccnc2)c1 [Example 48, 5-{[2-(Methylamino)ethyl]oxy}-2-[(phenylmethyl)oxy]-N-3-pyridinylbenzamide] | ≤ 100 | – | ≤ 20000 | –
7 | NCCOCCOc1ccc(OCc2ccccc2)c(C(=O)Nc2cccnc2)c1 [Example 49, 5-({2-[(2-Aminoethyl)oxy]ethyl}oxy)-2-[(phenylmethyl)oxy]-N-3-pyridinylbenzamide] | ≤ 10 | – | ≤ 20000 | –
8 | O=C(Nc1cn[nH]c1)c1cc(Br)ccc1OCc1ccccc1 [Example 51, 5-Bromo-2-[(phenylmethyl)oxy]-N-1H-pyrazol-4-ylbenzamide] | ≤ 100 | – | ≤ 20000 | –
9 | O=C(Nc1cccnc1)c1cc(Br)ccc1OCc1cccc(F)c1 [Example 57, 5-Bromo-2-{[(3-fluorophenyl)methyl]oxy}-N-3-pyridinyl benzamide] | ≤ 100 | – | > 25100 | –
10 | O=C(Nc1cccnc1)c1cc(Br)ccc1OCc1ccccc1F [Example 58, 5-Bromo-2-{[(2-fluorophenyl)methyl]oxy}-N-3-pyridinylbenzamide] | ≤ 10 | – | ≤ 20000 | –
11 | Cc1nocc1NC(=O)c1cc(-c2ccncc2)ccc1OCc1ccccc1 [Example 61, N-(3-Methyl-4-isoxazolyl)-2-[(phenylmethyl)oxy]-5-(4-pyridinyl)benzamide] | ≤ 10 | – | ≤ 20000 | –
12 | O=C(Nc1cnoc1)c1cc(-c2ccncc2)ccc1OCc1ccccc1 [Example 63, N-4-Isoxazolyl-2-[(phenylmethyl)oxy]-5-(4-pyridinyl)benzamide] | ≤ 100 | – | ≤ 20000 | –
13 | O=C(Nc1cccnc1)c1cc(CN2CCOCC2)ccc1OCc1ccccc1 [Example 69, 5-(4-Morpholinylmethyl)-2-[(phenylmethyl)oxy]-N-3-pyridinylbenzamide] | ≤ 100 | 15.8 | ≤ 20000 | 501
14 | O=C(Nc1cccnc1)c1cc(CN2CCCC2)ccc1OCc1ccccc1 [Example 70, 2-[(Phenylmethyl)oxy]-N-3-pyridinyl-5-(1-pyrrolidinylmethyl)benzamide] | ≤ 100 | – | ≤ 20000 | –
15 | CN(C)Cc1ccc(OCc2ccccc2)c(C(=O)Nc2cccnc2)c1 [Example 71, 5-[(Dimethylamino)methyl]-2-[(phenylmethyl)oxy]-N-3-pyridinylbenzamide] | ≤ 100 | – | ≤ 20000 | –
16 | Cn1cc(-c2ccc(OCc3ccccc3)c(C(=O)Nc3ccnnc3)c2)cn1 [Example 73, 5-(1-Methyl-1H-pyrazol-4-yl)-2-[(phenylmethyl)oxy]-N-4-pyridazinylbenzamide] | ≤ 10 | – | ≤ 20000 | –
17 | O=C(Nc1ccnnc1)c1cc(-c2ccncc2)ccc1OCc1ccccc1 [Example 74, 2-[(Phenylmethyl)oxy]-N-4-pyridazinyl-5-(4-pyridinyl)benzamide] | ≤ 10 | – | ≤ 20000 | –
18 | CC(O)c1ccc(OCc2ccccc2)c(C(=O)Nc2cccnc2)c1 (stereo not drawn) [Example 75, 5-(1-Hydroxyethyl)-2-[(phenylmethyl)oxy]-N-3-pyridinylbenzamide] | ≤ 10 | – | ≤ 20000 | –
19 | CC(C)(O)c1ccc(OCc2ccccc2)c(C(=O)Nc2cccnc2)c1 [Example 76, 5-(1-Hydroxy-1-methylethyl)-2-[(phenylmethyl)oxy]-N-3-pyridinylbenzamide] | ≤ 10 | – | ≤ 20000 | –
20 | COC(=O)NCc1ccc(OCc2ccccc2)c(C(=O)Nc2cccnc2)c1 [Example 86, Methyl ({4-[(phenylmethyl)oxy]-3-[(3-pyridinylamino)carbonyl]phenyl}methyl)carbamate] | ≤ 10 | – | ≤ 20000 | –
21 | CCOC(=O)CCc1ccc(OCc2ccccc2)c(C(=O)Nc2cccnc2)c1 [Example 87, Ethyl 3-{-4-[(phenylmethyl)oxy]-3-[(3-pyridinylamino)carbonyl]phenyl}propanoate] | ≤ 10 | – | ≤ 20000 | –
22 | O=C(O)CCc1ccc(OCc2ccccc2)c(C(=O)Nc2cccnc2)c1 [Example 88, 3-{4-[(phenylmethyl)oxy]-3-[(3-pyridinylamino)carbonyl]phenyl}propanoic acid] | ≤ 100 | – | > 25100 | –
